Consider 88 compounds from a melting point compilation (Tetko et al.; mined from patent text by program, amines drawn as free bases though some values may be those of a salt).

The structures appear in SMILES notation. Where only a bound is given, the exact number is not on record here.

The compound `NC(=O)CCCCCOc1ccc(C#Cc2ccc(C(=O)O)cc2)cc1C12CC3CC(CC(C3)C1)C2` yielded a melting point of 269 to 270 °C.

The compound `COc1ccc(C(C)=NNc2ccc(C3=NNC(=O)CC3)cc2)cc1` displayed a melting point of 204 to 207 °C.

Consider `N#CC(CCOc1ccccc1)(Cn1cncn1)c1ccccc1` (stereo not drawn), for which the melting point was 64 to 66 °C.

Turning to `CC(C(=O)OC(C)(C)C)C(C)(O)c1ccc(Cl)nc1NC(=O)C(C)(C)C` (stereo not drawn), the melting point was 146 to 148 °C.

`Cc1ccc2c(Br)c(F)cc([N+](=O)[O-])c2n1` displayed a melting point of 135 to 137 °C.

Compound `COc1ccc(C(N)=Nc2ccc(C(=O)O)cc2)cc1C(C)(C)C` registered a melting point of 170 to 172 °C.

Compound `C#CCOc1ccc(S(=O)(=O)C2(C(=O)O)CCN(Cc3ccc(OC)cc3)CC2)cc1` showed a melting point of 208 °C.

For `CCCCCCCCCCCCCCCCCC(=O)Nc1ccc(NC(=O)NS(=O)(=O)c2ccc3ccccc3c2)cc1`, the melting point is 192 °C.

`CCCCCCCCCCCCCCCCCC(=O)Nc1ccc(NC(=O)NS(=O)(=O)c2ccc(OC)cc2)cc1` yielded a melting point of 188 °C.

For the compound `Cc1nc2c([N+](=O)[O-])cccn2c1C=O`, the melting point fell in the range of 188 to 189 °C.

For the compound `C[C@H](NC(=O)c1cccc(NS(=O)(=O)CC2CN(C(c3ccc(Cl)cc3)c3ccc(Cl)cc3)C2)c1)C(N)=O`, the melting point turned out to be 229 °C.

On to `Cc1ccc(O)c(C(OC2CCN(C)CC2)c2nc3ccccc3[nH]2)c1` (stereo not drawn), for which the melting point worked out at 151 °C.

On to `Cn1cc(C(=O)NCc2ccc(Cl)cc2)c(=O)c2cc(C#CCO)cc(F)c21`, for which the melting point lay within 186 to 188 °C.

In the case of `COc1ccc(NC(=N)c2ccccc2)cc1NC(=O)/C=C/c1ccccc1C(F)(F)F`, the melting point lay within 208 to 210 °C.

`Fc1ccc(-c2cc(C(F)(F)F)n3ncc(-c4cccnc4)c3n2)cc1Cl` registered a melting point of 190 °C.

The compound `COc1ccc(C2(C#Cc3cccc(NS(C)(=O)=O)c3)CCCC(=O)C2)cc1OC1CCCC1` (stereo not drawn) came in with a melting point of 59 to 62 °C.

The compound `CC(O)c1ccc(-c2ccc(C(=O)OCc3ccc(Cl)cc3)cc2)cc1` (single isomer, unassigned; (+)) showed a melting point of 108 to 110 °C.

Regarding `N#Cc1ccc(N2C(=N)C3(CCSCC3)NC2=O)cc1C(F)(F)F`, the melting point was in the range of 226 to 227 °C.

Take `Cc1cc(Oc2ccc(F)cc2[N+](=O)[O-])n[nH]1`: the melting point fell in the range of 81 to 84 °C.

`CN(C(=O)c1cnc(N2CC(C)(C)NC2=O)nc1N)c1cccc(C(F)(F)F)c1` returned a melting point of 210 to 211 °C.

Regarding `O=C(Nc1cc(-c2ccc(Cl)cc2)on1)c1c(Cl)cccc1Cl`, the melting point was 228 to 229 °C.

For `O=C1C2CCCC2=Nc2ccccc2N1Cc1ccc2ccccc2c1` (stereo not drawn), the melting point fell in the range of 164 to 167 °C.

On to `COc1ccc(S(=O)(=O)Nc2ccccc2NC(=O)c2cc(C)nc(Cl)c2)cc1`, for which the melting point was in the range of 150 to 151 °C.

`O=C1CC(c2ccc(Oc3ccc(C(F)(F)F)cc3)cc2)Cc2ccccc21` (stereo not drawn) registered a melting point of 136 to 137 °C.

For `COc1ccc(S(=O)(=O)Nc2cccnc2Nc2cccc(OC)c2)cc1`, the melting point lay in the range of 161 to 162 °C.

Regarding `CCN(CC)CC#CCNC(=O)C(O)(c1ccccc1)C1CCCCC1` (stereo not drawn), the melting point is 102 to 104 °C.

Compound `O=C(O)Cc1ccc(NC(=O)C(Cc2ccccc2)NS(=O)(=O)c2ccc(Cl)cc2)cc1` (racemic) came in with a melting point of 204 to 206 °C.

In turn, `CS(=O)(=O)C=Cc1ccccc1` had a melting point of 77 to 79 °C.

The compound `CCc1nnc(CCc2ccc([N+](=O)[O-])cc2)o1` gave a melting point of 65 to 66 °C.

Take `O=c1c(CCc2cccs2)cc2cccnc2n1-c1cccc([N+](=O)[O-])c1`: the melting point was 175 to 176 °C.

Compound `Clc1ccc(Cn2cc(CCN=c3sc4ccccc4s3)c3ccccc32)cc1` registered a melting point of 120 to 121 °C.

Consider `COC1=C(OC)C(=O)C(c2cc(C(C)(C)C)c(O)c(C(C)(C)C)c2)=C(C)C1=O`, for which the melting point fell in the range of 147 to 148 °C.

Compound `O=C(O)c1cc2c(Cl)cccc2s1` registered a melting point of 227 to 231 °C.

The compound `COc1ccc2nc(-c3ccc(C)c(C)c3)n(-c3ccccc3)c2c1` returned a melting point of 251 °C.

In turn, `O=S(=O)(c1ccccc1)n1cnc(-c2ccc(F)cc2)c1-c1ccc(F)cc1` came in with a melting point of 172 to 175 °C.

Regarding `CC(C)CCCC(C)NC(=O)CCC(=NNC(N)=S)c1ccccc1` (stereo not drawn), the melting point lay in the range of 58 to 65 °C.

In turn, `Cc1ccc2c(c1C)OCC2c1ccc(C(C)C)cc1` (stereo not drawn) gave a melting point of 50 to 51 °C.

As to `CC(=O)C(CCC(=O)O)(CCC(=O)O)C(C)=O`, the melting point was 176 °C.

`CCCCCCC/C=C/C(=O)NCC`: the melting point fell in the range of 38 to 40 °C.

`CC(=O)OC1OCC[C@@H]1NC(=O)[C@@H](NC(=O)OCc1ccccc1)C(C)C` (stereo partly drawn) returned a melting point of 173 to 174 °C.

The compound `Cc1cc2c(cc1C)C(=O)c1c(N)cccc1C2=O` yielded a melting point of 222 °C.

As to `CC1(C)C(=CC=C2C(=O)c3ccccc3C2=C(C#N)C#N)N2CCc3cccc1c32`, the melting point is 277 °C.

The compound `COc1ccc(C2CCN(c3c(C)c(C)c4c(c3C)C(O)C(C)(C)O4)CC2)cc1OC` (stereo not drawn) returned a melting point of 140 to 142 °C.

In turn, `Cc1nc2ccccc2n1Cc1cc([N+](=O)[O-])ccc1O` registered a melting point of more than 260 °C.

On to `Clc1cc(Nc2nnc(-c3ccc4nonc4c3)s2)ccc1Br`, for which the melting point lay in the range of 326 to 327 °C.

In the case of `FC(F)(F)c1ccc(/C=C/c2nc(COc3ccc(CCCn4ccnn4)cc3)co2)cc1`, the melting point lay in the range of 157 to 158 °C.

As to `CC(=O)Nc1cccc(OCCCN2CCC(c3noc4cc(F)ccc34)CC2)c1`, the melting point was 184 to 186 °C.

`N[C@@H](Cc1c[nH]cn1)C(=O)N(N)C(=O)C(CC(=O)N1CCOCC1)Cc1cccc2ccccc12` (stereo partly drawn) registered a melting point of 115 to 119 °C.

For `Cc1cc(C#N)cc(C(C#N)c2nc(OCc3ccccc3)nc(OCc3ccccc3)c2C(C)(C)C)c1` (stereo not drawn), the melting point is 126 to 128 °C.

`CCN(CC)CCNC(=O)c1cc(Cl)c(N)cc1OCCS(C)=O` (stereo not drawn) displayed a melting point of 110 to 114 °C.

`CCC(C#N)C(=O)Nc1ccc(C2=NNC(=O)CC2C)cc1` (stereo not drawn) came in with a melting point of 225 to 227 °C.

Regarding `NC(=O)Oc1ccccc1-c1nc2cc(F)c(OCc3c(Cl)cccc3Cl)cc2s1`, the melting point lay within 245 to 250 °C.

The compound `CCCCCCCCCCCCCC(=O)N[C@H](C(=O)O)C(C)C` yielded a melting point of 88 to 89 °C.

The compound `CCCCCCCCCCCCOC(=O)Cc1nc(-c2ccc(Cl)cc2)oc1-c1ccco1` had a melting point of 69.5 to 71 °C.

The compound `CNC(=O)C(C)(C)N=NC(C)(C)C(=O)NC` showed a melting point of 153 °C.

On to `CCCCOc1cc(C=C[N+](=O)[O-])c([N+](=O)[O-])cc1OCc1ccccc1`, for which the melting point came out at 152 °C.

Compound `COC(=O)c1ccc(-c2nc3ccccc3o2)cc1` had a melting point of 190 to 191 °C.

Consider `COC(=O)c1ccc(Cc2cn(C)c3ccc(CC(C)C(=O)O)cc23)c(OC)c1` (stereo not drawn), for which the melting point fell in the range of 149 to 151 °C.

`NC(=O)c1cccc2c1CC(NCCCc1c[nH]c3ccc(F)cc13)CO2` (stereo not drawn) showed a melting point of 153 to 155 °C.

For the compound `Cc1cc(Nc2cc(-c3ccccc3)nc3ccccc23)[nH]n1`, the melting point fell in the range of 242 to 244 °C.

`CNc1nn(C(=O)Cl)c(=O)n1C`: the melting point amounted to 185 °C.

`Cc1c(C(=O)NC2(C(=O)O)Cc3cccc(Br)c3C2)oc2cc(-c3ccc(Cl)cc3)ccc12` (stereo not drawn) registered a melting point of 230 °C.

Compound `Cc1cc(N)c([N+](=O)[O-])cc1NCCO` registered a melting point of 141 °C.

On to `COc1cc(-n2cccn2)ccc1-n1cc(OC)c(=O)c(-c2ccnn2-c2cccc(C(F)(F)F)c2)n1`, for which the melting point is 215 to 217 °C.

With `CCn1c(=O)n(-c2ccc(Oc3nc4ccccc4n3C)cc2)c2ncc(Cl)cc21`, the melting point lay in the range of 208 to 210 °C.

The compound `COCCn1nc2c(N)nc3c(c2c1CC(C)(C)O)CCCC3` registered a melting point of 163 to 165 °C.

As for `c1ccc(-c2ccn3nccc3n2)cc1`, the melting point was 122 to 124 °C.

As to `CNC(=S)NNCC1CC2c3cccc4[nH]cc(c34)CC2N(C)C1` (stereo not drawn), the melting point was in the range of 220 to 221 °C.

In turn, `CCCc1c(OCCCCCCc2ccc3cc(OCc4ccccc4)c(OCc4ccccc4)cc3c2)ccc(C(=O)OCc2ccccc2)c1O` came in with a melting point of 94 to 97 °C.

Regarding `CC(=O)N1CCC2(c3ccccc3)OC2C1` (stereo not drawn), the melting point is 68 to 71 °C.

Regarding `NCC(=O)NCc1cc(=O)c(O)co1`, the melting point lay in the range of 216 to 218 °C.

With `CN(C)CCNc1ccc(O)c2c1C(=O)c1c(O)ccc(O)c1C2=O`, the melting point was in the range of 171 to 172 °C.

As for `CCC1CC2C3CCC4=CC(=O)CCC4=C3CCC2(C)C1O` (stereo not drawn), the melting point lay in the range of 124 to 126 °C.

`O=C(O)/C=C/c1ccc(C(=O)NCC2CCCO2)cc1` (stereo not drawn): the melting point turned out to be 215 °C.

With `CNC(=O)Nc1cc(C#N)ccn1`, the melting point is 203 to 204 °C.

`CCOC(=O)C1=Cc2cc3ccccc3n2CC1`: the melting point was in the range of 77 to 79 °C.

Compound `CCOC(=O)CCc1cn(-c2ccc(Cl)cn2)nc1C(C)C` showed a melting point of 70 to 71 °C.

`OC(c1ccccc1)(c1ncc[nH]1)c1ccccc1Cl` (stereo not drawn) displayed a melting point of 186 to 188 °C.

On to `CC(C)(C)OC(=O)N[C@H](Cc1ccccc1)C(=O)N1CCC[C@H]1C(=O)NC1CCc2n[nH]cc2C1` (stereo partly drawn), for which the melting point lay within 108 to 110 °C.

`CC=CC(=O)Nc1ccc2c(Nc3cccc(Br)c3)ncnc2c1` returned a melting point of more than 250 °C.

In turn, `COc1cc(C(=O)c2ccc(C(F)(F)F)cc2)cc(C#N)c1OC` registered a melting point of 130 °C.

`Cc1cc(-c2oncc2CCCO)ccc1Cl`: the melting point was 50 to 51 °C.

Compound `O=C(Cc1cnoc1-c1ccccc1)Nc1nc(-c2ccc(Cl)cc2)cs1` displayed a melting point of 210 to 211 °C.

`CN1C(=O)CCN(c2ccc(C(F)(F)F)cc2)C1=O` displayed a melting point of 115 to 117 °C.

`CC(C)(C)CCNC(=O)NCCCl` had a melting point of 84 °C.

The compound `O=c1nc(NC(=S)Nc2ccccc2)c(F)cn1S(=O)(=O)c1ccccc1` returned a melting point of 205 to 208 °C.

In turn, `NC(=O)CC[C@H]1CC[C@@H](c2ccc(F)cc2)N1S(=O)(=O)c1ccc(Cl)cc1` (racemic) yielded a melting point of 114 °C.

Regarding `Nc1ccc(F)cc1Nc1ccc(F)cc1`, the melting point fell in the range of 83 to 84 °C.

For orientation: melting point means the temperature, or range, at which the solid turns liquid.
